Several values for one entry are separate records, joined by “and”; a condition that tells them apart may be missing. Identical values can stand only once.
Target: NAMPT enzyme (Homo sapiens (Human), UniProt P43490)
Test: Enzyme Assay and NMN Detection (NAMPT reaction, fluorescence detection of NMN)
Format: biochemical
Conditions: Table B-1; NAMPT activation, NMN formation
Outline: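 Reaction in 50 mM HEPES pH 7.5, 5 mM MgCl2, 0.1% Prionex, 0.005% Tween 20, 1 mM TCEP at room temperature, with 16 nM NAMPT, 120 uM ATP, 5 uM nicotinamide, 6.25 uM PRPP, 0.04 U/ml pyrophosphatase for 2 h. Stopped with acetophenone/KOH then formic acid; NMN quantified by fluorescence (ex380/em460) against calibration curve.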

Chain of NAMPT enzyme (P43490 whole entry, species assumed): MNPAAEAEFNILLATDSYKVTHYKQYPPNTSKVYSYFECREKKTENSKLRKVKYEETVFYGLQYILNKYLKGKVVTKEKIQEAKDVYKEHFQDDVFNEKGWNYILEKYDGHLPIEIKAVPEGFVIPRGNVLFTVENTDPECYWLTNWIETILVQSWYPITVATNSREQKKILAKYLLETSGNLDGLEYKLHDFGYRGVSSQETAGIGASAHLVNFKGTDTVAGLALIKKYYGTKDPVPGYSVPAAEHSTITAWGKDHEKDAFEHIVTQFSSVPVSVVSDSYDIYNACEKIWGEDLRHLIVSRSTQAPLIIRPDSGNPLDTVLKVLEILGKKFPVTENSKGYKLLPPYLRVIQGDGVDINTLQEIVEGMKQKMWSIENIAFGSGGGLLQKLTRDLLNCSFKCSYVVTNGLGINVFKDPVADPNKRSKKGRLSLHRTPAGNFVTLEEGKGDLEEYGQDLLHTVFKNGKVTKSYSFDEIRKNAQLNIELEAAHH

Structure (SMILES) | EC50
O=C(NCc1cn[nH]c1)Nc1ccc(S(=O)(=O)c2ccccc2Cl)cc1 [1-[4-(2-Chloro-benzenesulfonyl)-phenyl]-3-(1H-pyrazol-4-ylmethyl)-urea] | < 100 nM
COc1ccccc1S(=O)(=O)c1ccc(NC(=O)NCc2cn[nH]c2)cc1 [1-[4-(2-Methoxy-benzenesulfonyl)-phenyl]-3-(1H-pyrazol-4-ylmethyl)-urea] | < 100 nM
O=C(NCc1cn[nH]c1)Nc1ccc(S(=O)(=O)N2CCc3ccccc3C2)cc1 [1-[4-(3,4-Dihydro-1H-isoquinoline-2-sulfonyl)-phenyl]-3-(1H-pyrazol-4-ylmethyl)-urea] | < 100 nM
Cc1noc(C)c1CNC(=O)Nc1ccc(S(=O)(=O)N2CCc3ccccc3C2)cc1 [1-[4-(3,4-Dihydro-1H-isoquinoline-2-sulfonyl)-phenyl]-3-(3,5-dimethyl-isoxazol-4-ylmethyl)-urea] | > 20000 nM
O=C(NCc1cnco1)Nc1ccc(S(=O)(=O)N2CCc3ccccc3C2)cc1 [1-[4-(3,4-Dihydro-1H-isoquinoline-2-sulfonyl)-phenyl]-3-oxazol-5-ylmethyl-urea] | 100 to 2000 nM
O=C(NCc1cncs1)Nc1ccc(S(=O)(=O)N2CCc3ccccc3C2)cc1 [1-[4-(3,4-Dihydro-1H-isoquinoline-2-sulfonyl)-phenyl]-3-thiazol-5-ylmethyl-urea] | 100 to 2000 nM
O=C(NCc1cn[nH]c1)Nc1ccc(S(=O)(=O)c2cccc(Cl)c2)cc1 [1-[4-(3-Chloro-benzenesulfonyl)-phenyl]-3-(1H-pyrazol-4-ylmethyl)-urea] | < 100 nM
COc1cccc(S(=O)(=O)c2ccc(NC(=O)NCc3cn[nH]c3)cc2)c1 [1-[4-(3-Methoxy-benzenesulfonyl)-phenyl]-3-(1H-pyrazol-4-ylmethyl)-urea] | < 100 nM
O=C(NCc1cn[nH]c1)Nc1ccc(S(=O)(=O)c2ccc(Cl)cc2)cc1 [1-[4-(4-Chloro-benzenesulfonyl)-phenyl]-3-(1H-pyrazol-4-ylmethyl)-urea] | < 100 nM

Same assay, conditions: Table B-2; NAMPT activation, NMN formation

Structure (SMILES) | EC50
COc1ccccc1S(=O)(=O)c1ccc(NC(=O)NCc2ccncc2)cc1 [1-[4-(2-Methoxy-benzenesulfonyl)-phenyl]-3-pyridin-4-ylmethyl-urea] | < 100 nM
O=C(NCc1ccncc1)Nc1ccc(S(=O)(=O)N2CCc3ccccc3C2)cc1 [1-[4-(3,4-Dihydro-1H-isoquinoline-2-sulfonyl)-phenyl]-3-pyridin-4-ylmethyl-urea] | 100 to 2000 nM
COc1cccc(S(=O)(=O)c2ccc(NC(=O)NCc3ccncc3)cc2)c1 [1-[4-(3-Methoxy-benzenesulfonyl)-phenyl]-3-pyridin-4-ylmethyl-urea] | < 100 nM
CC1Cc2ccccc2CN1S(=O)(=O)c1ccc(NC(=O)NCc2ccncc2)cc1 (stereo not shown) [1-[4-(3-Methyl-3,4-dihydro-1H-isoquinoline-2-sulfonyl)-phenyl]-3-pyridin-4-ylmethyl-urea] | 100 to 2000 nM
O=C(NCc1ccncc1)Nc1ccc(S(=O)(=O)c2ccc(Cl)cc2)cc1 [1-[4-(4-Chloro-benzenesulfonyl)-phenyl]-3-pyridin-4-ylmethyl-urea] | 100 to 2000 nM

Same assay, conditions: Table B-4; NAMPT activation, NMN formation

Structure (SMILES) | EC50
O=C(NCc1cn[nH]c1)Nc1ccc(S(=O)(=O)c2ccc(F)cc2F)cc1 [1-[4-(2,4-Difluoro-benzenesulfonyl)-phenyl]-3-(1H-pyrazol-4-ylmethyl)-urea] | < 100 nM
O=C(NCc1cn[nH]c1)Nc1ccc(S(=O)(=O)c2ccccc2-c2ccccc2F)cc1 [1-[4-(2′-Fluoro-biphenyl-2-sulfonyl)-phenyl]-3-(1H-pyrazol-4-ylmethyl)-urea] | < 100 nM
COc1ccccc1-c1ccccc1S(=O)(=O)c1ccc(NC(=O)NCc2cn[nH]c2)cc1 [1-[4-(2′-Methoxy-biphenyl-2-sulfonyl)-phenyl]-3-(1H-pyrazol-4-ylmethyl)-urea] | 5000 to 20000 nM
O=C(NCc1cn[nH]c1)Nc1ccc(S(=O)(=O)c2ccc(Cl)c(Cl)c2)cc1 [1-[4-(3,4-Dichloro-benzenesulfonyl)-phenyl]-3-(1H-pyrazol-4-ylmethyl)-urea] | 5000 to 20000 nM
O=C(NCc1cn[nH]c1)Nc1ccc(S(=O)(=O)c2ccc(F)c(F)c2)cc1 [1-[4-(3,4-Difluoro-benzenesulfonyl)-phenyl]-3-(1H-pyrazol-4-ylmethyl)-urea] | 100 to 2000 nM
O=C(NCc1cn[nH]c1)Nc1ccc(S(=O)(=O)c2cc(F)cc(F)c2)cc1 [1-[4-(3,5-Difluoro-benzenesulfonyl)-phenyl]-3-(1H-pyrazol-4-ylmethyl)-urea] | < 100 nM
O=C(NCc1cn[nH]c1)Nc1ccc(S(=O)(=O)c2cccc(I)c2)cc1 [1-[4-(3-Iodo-benzenesulfonyl)-phenyl]-3-(1H-pyrazol-4-ylmethyl)-urea] | < 100 nM
O=C(NCc1cn[nH]c1)Nc1ccc(S(=O)(=O)c2ccccc2-c2cccc(Cl)c2)cc1 [1-[4-(3′-Chloro-biphenyl-2-sulfonyl)-phenyl]-3-(1H-pyrazol-4-ylmethyl)-urea] | 100 to 2000 nM
O=C(NCc1cn[nH]c1)Nc1ccc(S(=O)(=O)c2ccccc2-c2cccc(F)c2)cc1 [1-[4-(3′-Fluoro-biphenyl-2-sulfonyl)-phenyl]-3-(1H-pyrazol-4-ylmethyl)-urea] | < 100 nM
COc1cccc(-c2ccccc2S(=O)(=O)c2ccc(NC(=O)NCc3cn[nH]c3)cc2)c1 [1-[4-(3′-Methoxy-biphenyl-2-sulfonyl)-phenyl]-3-(1H-pyrazol-4-ylmethyl)-urea] | 2000 to 5000 nM
Cc1cccc(-c2ccccc2S(=O)(=O)c2ccc(NC(=O)NCc3cn[nH]c3)cc2)c1 [1-[4-(3′-Methyl-biphenyl-2-sulfonyl)-phenyl]-3-(1H-pyrazol-4-ylmethyl)-urea] | 100 to 2000 nM
N#Cc1ccc(S(=O)(=O)c2ccc(NC(=O)NCc3cn[nH]c3)cc2)cc1 [1-[4-(4-Cyano-benzenesulfonyl)-phenyl]-3-(1H-pyrazol-4-ylmethyl)-urea] | 100 to 2000 nM

Same assay, conditions: Table B-5; NAMPT activation, NMN formation

Structure (SMILES) | EC50
O=C(NCc1cnco1)Nc1ccc(S(=O)(=O)c2ccc(F)cc2F)cc1 [1-[4-(2,4-Difluoro-benzenesulfonyl)-phenyl]-3-oxazol-5-ylmethyl-urea] | 100 to 2000 nM
O=C(NCc1cnco1)Nc1ccc(S(=O)(=O)c2ccccc2Cl)cc1 [1-[4-(2-Chloro-benzenesulfonyl)-phenyl]-3-oxazol-5-ylmethyl-urea] | 100 to 2000 nM
O=C(NCc1cnco1)Nc1ccc(S(=O)(=O)c2ccc(Cl)c(Cl)c2)cc1 [1-[4-(3,4-Dichloro-benzenesulfonyl)-phenyl]-3-oxazol-5-ylmethyl-urea] | 100 to 2000 nM and 2000 to 5000 nM
O=C(NCc1cnco1)Nc1ccc(S(=O)(=O)c2ccc(F)c(F)c2)cc1 [1-[4-(3,4-Difluoro-benzenesulfonyl)-phenyl]-3-oxazol-5-ylmethyl-urea] | 100 to 2000 nM
O=C(NCc1cnco1)Nc1ccc(S(=O)(=O)c2cc(F)cc(F)c2)cc1 [1-[4-(3,5-Difluoro-benzenesulfonyl)-phenyl]-3-oxazol-5-ylmethyl-urea] | 100 to 2000 nM
COc1cccc(S(=O)(=O)c2ccc(NC(=O)NCc3cnco3)cc2)c1 [1-[4-(3-methoxy-benzenesulfonyl)-phenyl]-3-oxazol-5-ylmethyl-urea] | 100 to 2000 nM
N#Cc1ccc(S(=O)(=O)c2ccc(NC(=O)NCc3cnco3)cc2)cc1 [1-[4-(4-Cyano-benzenesulfonyl)-phenyl]-3-oxazol-5-ylmethyl-urea] | 100 to 2000 nM

Same assay, conditions: Table B-6; NAMPT activation, NMN formation

Structure (SMILES) | EC50
O=C(NCc1ccncc1)Nc1ccc(S(=O)(=O)c2ccc(F)cc2F)cc1 [1-[4-(2,4-Difluoro-benzenesulfonyl)-phenyl]-3-pyridin-4-ylmethyl-urea] | 100 to 2000 nM
O=C(NCc1ccncc1)Nc1ccc(S(=O)(=O)c2ccccc2-c2cccnc2)cc1 [1-[4-(2-Pyridin-3-yl-benzenesulfonyl)-phenyl]-3-pyridin-4-ylmethyl-urea] | 100 to 2000 nM
O=C(NCc1ccncc1)Nc1ccc(S(=O)(=O)c2ccccc2-c2ccncc2)cc1 [1-[4-(2-Pyridin-4-yl-benzenesulfonyl)-phenyl]-3-pyridin-4-ylmethyl-urea] | 100 to 2000 nM
O=C(NCc1ccncc1)Nc1ccc(S(=O)(=O)c2ccccc2-c2ccccc2F)cc1 [1-[4-(2′-Fluoro-biphenyl-2-sulfonyl)-phenyl]-3-pyridin-4-ylmethyl-urea] | < 100 nM
COc1ccccc1-c1ccccc1S(=O)(=O)c1ccc(NC(=O)NCc2ccncc2)cc1 [1-[4-(2′-Methoxy-biphenyl-2-sulfonyl)-phenyl]-3-pyridin-4-ylmethyl-urea] | 5000 to 20000 nM
O=C(NCc1ccncc1)Nc1ccc(S(=O)(=O)c2ccc(Cl)c(Cl)c2)cc1 [1-[4-(3,4-Dichloro-benzenesulfonyl)-phenyl]-3-pyridin-4-ylmethyl-urea] | 100 to 2000 nM
O=C(NCc1ccncc1)Nc1ccc(S(=O)(=O)c2ccc(F)c(F)c2)cc1 [1-[4-(3,4-Difluoro-benzenesulfonyl)-phenyl]-3-pyridin-4-ylmethyl-urea] | < 100 nM
O=C(NCc1ccncc1)Nc1ccc(S(=O)(=O)c2cc(F)cc(F)c2)cc1 [1-[4-(3,5-Difluoro-benzenesulfonyl)-phenyl]-3-pyridin-4-ylmethyl-urea] | 100 to 2000 nM
O=C(NCc1ccncc1)Nc1ccc(S(=O)(=O)c2cccc(I)c2)cc1 [1-[4-(3-Iodo-benzenesulfonyl)-phenyl]-3-pyridin-4-ylmethyl-urea] | < 100 nM
O=C(NCc1ccncc1)Nc1ccc(S(=O)(=O)c2ccccc2-c2cccc(Cl)c2)cc1 [1-[4-(3′-Chloro-biphenyl-2-sulfonyl)-phenyl]-3-pyridin-4-ylmethyl-urea] | 100 to 2000 nM
O=C(NCc1ccncc1)Nc1ccc(S(=O)(=O)c2ccccc2-c2cccc(F)c2)cc1 [1-[4-(3′-Fluoro-biphenyl-2-sulfonyl)-phenyl]-3-pyridin-4-ylmethyl-urea] | < 100 nM
COc1cccc(-c2ccccc2S(=O)(=O)c2ccc(NC(=O)NCc3ccncc3)cc2)c1 [1-[4-(3′-Methoxy-biphenyl-2-sulfonyl)-phenyl]-3-pyridin-4-ylmethyl-urea] | 100 to 2000 nM
Cc1cccc(-c2ccccc2S(=O)(=O)c2ccc(NC(=O)NCc3ccncc3)cc2)c1 [1-[4-(3′-Methyl-biphenyl-2-sulfonyl)-phenyl]-3-pyridin-4-ylmethyl-urea] | 100 to 2000 nM

— US11452717B2, “Small molecule activators of nicotinamide phosphoribosyltransferase (NAMPT) and uses thereof” (Sanford Burnham Prebys Medical Discovery Institute, priority 2017, dated 2022)
